The text below walks through data of patent US4652637A, “Steroidal glycolipids” (priority 1985, dated 1987).

Each structure is given as a SMILES string.

Experiment [1] has as its system Pseudomonas aeruginosa (Immunotype 1). The experiment in a line: In vivo protection against Pseudomonas aeruginosa infection in cyclophosphamide-immunosuppressed CFl female mice (LD50 / protective index). The settings on record: CY-treated mice, LD50 (CY + test compound) / LD50 (CY alone); for Protective Index (log): Table 3, Pseudomonas aeruginosa, dose and route not given; for P.I. (log): PA, sub cutaneous. How it is done: (§1) Groups of 15-20 CFl female mice (Charles River Breeding, Cambridge, MA) weighing 22-28 gm were injected intraperitoneally (i.p.) with cyclophosphamide (Cytoxan; CY) at 250 mg per kg body weight. One to two hours later they were typically injected again with the test material by the route specified. Four days later, the mice were divided into groups of five, each of which were injected i.p. with a different dilution of a suspension of Pseudomonas aeruginosa (Immunotype 1). The number of survivors was determined periodically and an estimate was made of the number of CFU of Pseudomonas organisms necessary to cause 50% lethality by the cumulative method of L. J. Reed and H. Muench (Am. J. Hygeine 27 (1938) 493-497). A protective index (P.I.) was defined as the LD50 for the mice receiving cyclophosphamide and the test compound divided by the LD50 for the mice receiving cyclophosphamide alone. All control mice were injected with aqueous vehicle in the same route and schedule as the test animals.
(§2) All compounds for dosing were suspended in a sterile medium referred to as "aqueous vehicle" which contains 0.9% sodium chloride, 0.5% carboxymethyl cellulose, 0.4% Tween 80, and 0.9% benzyl alcohol unless otherwise stated. Test materials were evaluated via subcutaneous (s.c.), i.p., intramuscular (i.m.), orally (p.o.). and intravenous (i.v.) routes of administration. The initial test dose was 40 mg per kg per mouse, with each active compound subsequently titrated below this level.
(§3) All bacteria were inoculated i.p. to induce infection in the in vivo experiments. Candida albicans, however, was administered i.v. Bacteria cultures were harvested in the log phase, washed with phosphate buffered saline (PBS, and resuspended in PBS containing 10% glycerol for freezing at -70° C. in 1 ml aliquots. The number of […] (cfu's) was determined before and after freezing. Frozen cultures were routinely thawed and diluted in sterile PBS just prior to inoculation. Viable cell counts were routinely done on thawed cultures the day of challenge to determine the number of cfu's. Candida albicans was stored in distilled water at room temperature. Viable cell counts were determined the day of testing.
(§4) The testing and results of 6-(5-cholesten-3β-yloxy)hexyl-1-thio-β-D-mannopyranoside (Example 2) against various orgaisms is shown in Table 2.

Experiment [2] deals with Candida albicans. As to the kind of experiment: In vivo protection against Candida albicans infection in cyclophosphamide-immunosuppressed mice (LD50 / protective index). Particulars: CA i.v., CY-treated mice, sub cutaneous, LD50 (CY + test compound) / LD50 (CY alone). The method, then: as §1
All compounds for dosing were suspended in a sterile medium referred to as "aqueous vehicle" which contains 0.9% sodium chloride, 0.5% carboxymethyl cellulose, 0.4% Tween 80, and 0.9% benzyl alcohol unless otherwise stated. Test materials were evaluated via subcutaneous (s.c.), i.p., intramuscular (i.m.), orally (p.o.). and intravenous (i.v.) routes of administration. […]
as §3, with “testing. […]” for “testing.”

Experiment [3] has as its system Staphylococcus aureus. The experiment in a line: In vivo protection against Staphylococcus aureus infection in cyclophosphamide-immunosuppressed mice (LD50 / protective index). The settings on record: SA, CY-treated mice, sub cutaneous, LD50 (CY + test compound) / LD50 (CY alone). How it is done:
as §1, §2, §3, §4

With `CC(C)CCC[C@@H](C)[C@H]1CC[C@H]2[C@@H]3CC=C4C[C@@H](OCCCCCCS[C@H]5O[C@H](CO)[C@@H](O)[C@H](O)[C@@H]5O)CC[C@]4(C)[C@H]3CC[C@]12C` [Example 1, 6-(5-Cholesten-3β-yloxy)hexyl 1-thio-α-D-mannopyranoside], the “Protective Index (log)” value in experiment [1] turned out to be 1.5 log.
In the case of `CC(C)CCC[C@@H](C)[C@H]1CC[C@H]2[C@@H]3CC=C4C[C@@H](OCCCCCCS[C@@H]5O[C@H](CO)[C@@H](O)[C@H](O)[C@@H]5O)CC[C@]4(C)[C@H]3CC[C@]12C` [Example 2, 6-(5-Cholesten-3β-yloxy)hexyl 1-thio-β-D-mannopyranoside], the “P.I. (log)” value in experiment [2] (10 mg/kg) is 0.67 log; in experiment [2] (20 mg/kg), 0.81 log; in experiment [2] (40 mg/kg), 1 log; in experiment [1] (10 mg/kg) it was 2.75 log; in experiment [1] (20 mg/kg), 3.75 log; in experiment [1] (40 mg/kg), 4.33 log. In addition, the “P.I. (log)” value in experiment [1] (80 mg/kg) was 4.66 log; in experiment [3] (5 mg/kg), 0.99 log; in experiment [3] (10 mg/kg), 1.47 log; in experiment [3] (20 mg/kg), 1.83 log; in experiment [3] (40 mg/kg), 2.66 log. Besides, the “Protective Index (log)” value in experiment [1] was 4.5 log.
As for `CC(C)CCC[C@@H](C)[C@H]1CC[C@H]2[C@@H]3CC=C4C[C@@H](OCCCCCCS[C@@H]5O[C@@H](C)[C@@H](O)[C@@H](O)[C@@H]5O)CC[C@]4(C)[C@H]3CC[C@]12C` [Example 3, 6-(5-Cholesten-3β-yloxy)hexyl 1-thio-α-L-fucopyranoside], in experiment [1], the “Protective Index (log)” value is 2.8 log.
`CC(C)CCC[C@@H](C)[C@H]1CC[C@H]2[C@@H]3CC=C4C[C@@H](OCCCCCCS[C@H]5O[C@@H](C)[C@@H](O)[C@@H](O)[C@@H]5O)CC[C@]4(C)[C@H]3CC[C@]12C` [Example 4, 6-(5-Cholesten-3β-yloxy)hexyl 1-thio-β-L-fucopyranoside]: in experiment [1], the “Protective Index (log)” value is given as 1.3 log.
`CC(C)CCC[C@@H](C)[C@H]1CC[C@H]2[C@@H]3CC=C4C[C@@H](OCCOCCS[C@@H]5O[C@H](CO)[C@@H](O)[C@H](O)[C@@H]5O)CC[C@]4(C)[C@H]3CC[C@]12C` [Example 5, 2-(2-(5-Cholesten-3β-yloxy)ethoxy)ethyl 1-thio-β-D-mannopyranoside]: in experiment [1], the “Protective Index (log)” value was 1.7 log.
Same read-out and setting: the value for `CC[C@H](C=C[C@@H](C)[C@H]1CC[C@H]2[C@@H]3CC=C4C[C@@H](OCCCCCCS[C@@H]5O[C@H](CO)[C@@H](O)[C@H](O)[C@@H]5O)CC[C@]4(C)[C@H]3CC[C@]12C)C(C)C` [Example 6, 6-(Stigmasta-5,22-dien-3β-yloxy)hexyl 1-thio-β-D-mannopyranoside] was 2.0 log; that for `CC(=O)[C@H]1CC[C@H]2[C@@H]3CC=C4C[C@@H](OCCCCCCS[C@@H]5O[C@H](CO)[C@@H](O)[C@H](O)[C@@H]5O)CC[C@]4(C)[C@H]3CC[C@]12C` [Example 7, 6-(Pregn-5-en-20-one-3β-yloxy)hexyl 1-thio-βD-mannopyranoside] was 3.5 log.
With `COC(=O)[C@H]1CC[C@H]2[C@@H]3CC=C4C[C@@H](OCCCCCCS[C@@H]5O[C@H](CO)[C@@H](O)[C@H](O)[C@@H]5O)CC[C@]4(C)[C@H]3CC[C@]12C` [Example 8, 6-(17β-Carbomethoxy-androst-5-en-3β-yloxy)hexyl 1-thio-β-D-mannopyranoside], the “Protective Index (log)” value in experiment [1] stood at 2.5 log.
The same measure, in the same setting: the result for `C[C@]12CC[C@H]3[C@@H](CC=C4C[C@@H](OCCCCCCS[C@@H]5O[C@H](CO)[C@@H](O)[C@H](O)[C@@H]5O)CC[C@@]43C)[C@@H]1CC[C@@H]2C(N)=O` [Example 9, 6-(17β-Carbamido-androst-5-en-3β-yloxy)hexyl 1-thio-β-D-mannopyranoside] reads 2.5 log; that for `CC(O)[C@H]1CC[C@H]2[C@@H]3CC=C4C[C@@H](OCCCCCCS[C@@H]5O[C@H](CO)[C@@H](O)[C@H](O)[C@@H]5O)CC[C@]4(C)[C@H]3CC[C@]12C` (stereo partly drawn) [Example 10, 6-(Pregn-5-en-20-ol-3β-yloxy)hexyl 1-thio-β-D-mannopyranoside], 1.3 log; that for `CC(=O)N[C@@H](C)[C@H]1CC[C@H]2[C@@H]3CC=C4C[C@@H](OCCCCCCS[C@@H]5O[C@H](CO)[C@@H](O)[C@H](O)[C@@H]5O)CC[C@]4(C)[C@H]3CC[C@]12C` [Example 11, 6-(20S-Acetamido-pregn-5-en-3β-yloxy)hexyl 1-thio-β-D-mannopyranoside], 3.0 log.
As to `CC(=O)N[C@H](C)[C@H]1CC[C@H]2[C@@H]3CC=C4C[C@@H](OCCCCCCS[C@@H]5O[C@H](CO)[C@@H](O)[C@H](O)[C@@H]5O)CC[C@]4(C)[C@H]3CC[C@]12C` [Example 12, 6-(20R-Acetamido-pregn-5-en-3β-yloxy)hexyl 1-thio-β-D-mannopyranoside], in experiment [1], the “Protective Index (log)” value is on record as 2.6 log.
